Values after ≈ are worked out from the molar mass of the structure shown.

For orientation: solubility (kinetic) means the concentration staying in solution when a stock, usually in DMSO, is diluted into the medium.

The conditions of this data set: buffer; pH 7.4; 200.0 µM.
As for `CC(C)COc1ccc(C(=S)N2CCCC2)cc1`, the kinetic solubility amounted to 21.2 µg/mL (≈ 80.5 µM).
On to `COc1ccc(C(=O)N=c2sccn2C)cc1`, for which the kinetic solubility is 36.1 µg/mL (≈ 145 µM).
In the case of `O=C(c1ccc(Cl)cc1[N+](=O)[O-])N1CCOCC1` it was 40.2 µg/mL (≈ 149 µM); in that of `Cc1ccccc1C(=O)NC1CCCCCCC1`, 30.2 µg/mL (≈ 123 µM).
On to `O=C(c1ccccc1SCc1ccccc1)N1CCOCC1`, for which the kinetic solubility worked out at 45.9 µg/mL (≈ 146 µM).
In the case of `O=C(NCCc1ccccc1)c1ccc(NC(=O)c2cccnc2)cc1` it was 4.3 µg/mL (≈ 12.4 µM).
In the case of `Cc1cccc(NC(=O)COc2ccc3c(c2)CCC3)n1` it was 2.4 µg/mL (≈ 8.5 µM).
In the case of `COc1ccccc1Nc1nc(NCCCN(C)C)nc(N)c1[N+](=O)[O-]` it was over 54.2 µg/mL; in that of `O=C(CN1C(=O)NC2(CCCCCC2)C1=O)NCc1ccc(F)cc1`, over 52.1 µg/mL; in that of `O=C(COC(=O)Cc1c(F)cccc1Cl)NCc1ccc2c(c1)OCO2`, 46.5 µg/mL (≈ 122 µM).
Regarding `COC(=O)[C@H](CC(C)C)NC(=O)N1CCCCC1C` (stereo partly specified), the solubility (kinetic) was over 40.6 µg/mL.
In the case of `COc1cc(CC(=O)OCC(=O)NC(C)c2ccccc2)cc(OC)c1OC` (stereo unspecified) it was over 58.1 µg/mL.
`CC1=C(Cl)C2=NS(=O)(=O)CCN2C=C1Cl` gave a solubility (kinetic) of over 40.1 µg/mL.
In the case of `Cc1ccc(NC(=O)CN2C(=O)c3ccccc3S2(=O)=O)cc1C` it was 5.9 µg/mL (≈ 17.1 µM).
In the case of `CC(=O)c1c(C)c(C)c2n1CCn1c(C)ccc1-2` it was 13.4 µg/mL (≈ 55.3 µM); in that of `CC(C)Oc1ccc(OCCn2c(=S)[nH]c3c(N)ncnc32)cc1`, 45.2 µg/mL (≈ 131 µM).
In the case of `COc1cc(NC(=O)CC(C)n2ccnc2)cc(OC)c1` (stereo unspecified) it was over 43.4 µg/mL; in that of `COc1cccc(C(=O)Nc2ccc(NC(=O)Cc3ccccc3)cc2)c1`, under 0.4 µg/mL; in that of `CCOC(=O)c1c(-c2ccccc2)oc2ccc(OCC(N)=O)cc12`, under 0.7 µg/mL.
`c1ccc2c(c1)OCC(CNCC1COc3ccccc3O1)O2` (stereo unspecified) returned a solubility (kinetic) of over 47 µg/mL.
In the case of `O=C(COC(=O)c1ccccc1F)NC(=O)NC1CCCC1` it was over 46.2 µg/mL; in that of `COc1ccc(S(=O)(=O)N2CCc3ccccc32)cc1C(=O)NCC(c1ccco1)N1CCCC1` (stereo unspecified), 20.1 µg/mL (≈ 40.6 µM); in that of `Cc1cccc(C)c1NC(=S)N1CC(C)OC(C)C1` (stereo unspecified), over 41.8 µg/mL.
In the case of `O=C(CC1CCCC1)Nc1cccc(Br)c1` it was 18.1 µg/mL (≈ 64.1 µM); in that of `Cc1ccc(C(=O)N/C(=C\c2ccco2)C(=O)N2CCOCC2)cc1C`, over 53.2 µg/mL; in that of `C[C@@H](C(=O)Nc1ccc(SC(F)F)cc1)N1C(=O)C2CCCCC2C1=O` (stereo partly specified), 52.5 µg/mL (≈ 137 µM).
Compound `CSc1ccccc1NC(=S)NC1CCCC1` returned a kinetic solubility of over 40 µg/mL.
In the case of `O=c1[nH]cccc1-c1nc2cc(Cl)ccc2n1Cc1ccccc1` it was 5.7 µg/mL (≈ 17 µM).
For `Cn1c2ccc(F)cc2c2nc3ccccc3nc21`, the solubility (kinetic) came to 0.7 µg/mL (≈ 2.79 µM).
In the case of `CCN(C(=O)Cc1c(C(=O)O)n(C)c2ccccc12)c1cccc(C)c1` it was over 52.6 µg/mL; in that of `CCOC(=O)CNc1cccc(C(F)(F)F)c1`, 8 µg/mL (≈ 32.4 µM); in that of `CCn1cc(S(=O)(=O)N2CCc3ccccc3C2)cn1`, over 43.7 µg/mL.
`CC(C)[C@H](NC(=O)C1CCCC1)c1nc2ccccc2[nH]1` registered a kinetic solubility of 9.9 µg/mL (≈ 34.7 µM).
In the case of `CCOc1ccc(NC(=O)c2[nH]c(C)c(C(C)=O)c2C)cc1` it was 3.4 µg/mL (≈ 11.3 µM); in that of `CCCc1cc(=O)[nH]c(SCC(=O)Nc2ccc(OC)c(S(=O)(=O)N3CCCCC3)c2)n1`, 13.8 µg/mL (≈ 28.7 µM); in that of `O=C(Nc1ccccn1)c1ccc(C(=O)Nc2ccccn2)cc1`, 0.5 µg/mL (≈ 1.57 µM).
In the case of `COCCN(CC(=O)Nc1cccc(C)c1C)C(=O)c1oc2ccccc2c1C` it was 7.4 µg/mL (≈ 18.8 µM); in that of `CCN(CC)CCCNC(=O)c1cc(-c2ccc3c(c2)OCO3)on1`, 49.4 µg/mL (≈ 143 µM); in that of `CCCc1nc(SCC(=O)NC2CC2)c2c(C)c(C)sc2n1`, 0.8 µg/mL (≈ 2.38 µM).
In the case of `COc1ccc(NC(=S)NC(=O)Cc2ccccc2)cc1` it was 19.2 µg/mL (≈ 63.9 µM); in that of `CCOc1ccc(S(=O)(=O)NCCC(=O)N2CCC(Cc3ccccc3)CC2)cc1`, 12.8 µg/mL (≈ 29.7 µM).
The compound `Cc1ccc(CN(Cc2ccccc2)C(=S)Nc2ccccc2C)o1` yielded a solubility (kinetic) of 1.5 µg/mL (≈ 4.28 µM).
In the case of `CC1CCc2cccc3c(O)cc(=O)n1c23` (stereo unspecified) it was over 32.3 µg/mL; in that of `CCC(C)Nc1nc(N)c([N+](=O)[O-])c(Nc2ccccc2OC)n1` (stereo unspecified), 2.6 µg/mL (≈ 7.82 µM); in that of `O=C(Nc1cc(S(=O)(=O)Nc2ccc(Cl)cc2)ccc1O)c1ccc(F)cc1F`, 4.2 µg/mL (≈ 9.57 µM).
For `O=C(O)c1ccccc1-c1ccccc1C(=O)Nc1nc2ccccc2s1`, the solubility (kinetic) was over 56.2 µg/mL.
In the case of `CN1C(=O)C2(OCC(C)([N+](=O)[O-])CO2)c2ccccc21` (stereo unspecified) it was 21.7 µg/mL (≈ 78 µM); in that of `O=c1c2ccccc2nc2n1C(CBr)CS2` (stereo unspecified), over 44.6 µg/mL; in that of `CC(C)(CCO)NC(=S)NC1CC2C=CC1C2` (stereo unspecified), over 38.2 µg/mL.
As to `COC(=O)c1cc(-c2ccccc2)nc2nc(SC)[nH]c(=O)c12`, the kinetic solubility worked out at 9.8 µg/mL (≈ 29.9 µM).
In the case of `O=C(c1ccccc1)C1CCN(C(=O)c2cccs2)CC1` it was 38.9 µg/mL (≈ 130 µM).

These data come from PubChem BioAssay AID1996.
